From patent US20250327191A1, “CORROSSION INHIBITOR COMPOSITIONS” (Tata Consultancy Services Limited, priority 2024, published 2025)

Experiment: Corrosion inhibition on steel coupons immersed in 1M HCl for 2 hrs
Procedure: The corrosion inhibitor composition of the example—1 is tested for its corrosion inhibition effect on steel at two temperatures. The steel being the ferrous alloy has the following composition:
The steel coupons are initially abraded with various emery papers of decreasing coarseness i.e. 80, 150, 220, 400 grits to obtain a fine finish surface. The fine finished coupons are cleaned with acetone and then wrapped in paper to avoid any further oxidation and stored in a safe and dry place until further use. The 400 grit finished coupons are immersed in 100 ml 1M HCl solution for 2 hrs at room temperature and at […], to find out the corrosion rate. Similarly, the fine finished coupons are also immersed in 100 ml 1M HCl along with the composition of the example—1 with an effective concentration of inhibitor 200, 500 and 1000 ppm for 2 hrs at room temperatures. […] As, it is also essential for the corrosion inhibitors to perform well in case of higher temperatures. Further, the composition of example—1 is tested at higher temperatures. The below Table-2 provides the information on test results. It is evident from the Table-2 that the inhibition efficiencies at 60° C. is relatively higher than that of room temperature. The average corrosion rates (CR) at room temperature and 60° C. in 1 M HCl without inhibitor for 2 hrs immersion are 1.1081 cm/y and 16.42325 cm/y respectively. The inhibition efficiency (IE) is calculated using the formula: […]

In the case of `Cc1ccc(C=O)s1` [5-Methyl-2-thiophenecarboxaldehyde, 5-methyl-2-thiophenecarboxaldehyde], the “IE (%)” value (200 ppm, no KI intensifier, 27 °C) is reported as 54.03%, the “IE (%)” value (500 ppm, no KI intensifier, 27 °C) is reported as 63.58% and the “IE (%)” value (1000 ppm, 0.1 wt % KI, 27 °C) is reported as 84.07%. For the same molecule, the “IE (%)” value (1000 ppm, 0.25 wt % KI, 27 °C) was 90.43%, the “IE (%)” value (1000 ppm, 0.5 wt % KI, 27 °C) was 92.36% and the “IE (%)” value (1000 ppm, 0.5 wt % KI, 60 °C) was 95.06%. The “IE (%)” value (1000 ppm, no KI intensifier, 27 °C) was 72.65%.
